Test results reported in US12084471B2, “Amino acid derivative of glucosamine stimulating extracellular matrix synthesis and pharmaceutical composition comprising the same” (CARTILAGO S.R.L., priority 2018, dated 2024).

Experiments:
p38 = p38 phosphorylation in primary cultured chondrocytes stimulated with IL-1; format: cell-based
Procedure: (§1) To clarify the molecular mechanism, glucosamine-derived N-acetyl-phenylalanine has been studied in vitro, using primary cultured chondrocytes. The chondrocytes were stimulated with IL-1 in order to study the inflammatory pathway, controlled by the Activator Protein (AP)-1. […] The efficacy of interfering with the inflammatory pathway controlled by the transcription factor Nuclear Factor-κB (NF-κB) was then analyzed, which in turn is controlled by the IKK complex consisting of two IKKα and IKKβ kinases.

IKKβ = target: T1, IKKβ (Homo sapiens, UniProt O14920); experiment: kinase activity of IKKβ; format: cell-based
T1 sequence (O14920 1-756): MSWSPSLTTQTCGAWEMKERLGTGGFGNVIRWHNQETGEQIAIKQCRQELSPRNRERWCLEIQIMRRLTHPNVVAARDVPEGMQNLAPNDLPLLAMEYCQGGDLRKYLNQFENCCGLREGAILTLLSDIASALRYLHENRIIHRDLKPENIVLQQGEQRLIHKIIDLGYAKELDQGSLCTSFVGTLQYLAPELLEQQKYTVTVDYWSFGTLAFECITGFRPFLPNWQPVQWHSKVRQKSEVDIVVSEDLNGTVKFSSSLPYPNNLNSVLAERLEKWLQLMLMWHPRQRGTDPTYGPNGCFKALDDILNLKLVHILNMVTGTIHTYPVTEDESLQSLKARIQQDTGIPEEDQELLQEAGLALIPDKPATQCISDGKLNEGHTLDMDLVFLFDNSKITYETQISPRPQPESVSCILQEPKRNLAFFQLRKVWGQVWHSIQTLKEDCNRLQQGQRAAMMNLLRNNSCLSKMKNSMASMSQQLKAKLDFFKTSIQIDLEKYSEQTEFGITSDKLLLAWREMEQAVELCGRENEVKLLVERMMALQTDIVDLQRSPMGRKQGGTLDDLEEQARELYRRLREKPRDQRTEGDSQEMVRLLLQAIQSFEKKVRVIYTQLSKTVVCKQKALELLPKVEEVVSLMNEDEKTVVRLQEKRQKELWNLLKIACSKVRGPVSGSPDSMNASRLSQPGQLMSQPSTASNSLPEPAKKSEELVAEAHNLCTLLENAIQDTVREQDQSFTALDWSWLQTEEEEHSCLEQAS
Procedure: as §1

c-jun = experiment: activation of c-jun (AP-1 component) in primary cultured chondrocytes stimulated with IL-1; format: cell-based
Procedure: as §1

[1] = test system: osteoarthritic knees of rabbits; experiment: in vivo model of OA in rabbit, intra-articular administration; details: rabbit OA knee
[2] = test system: fibroblasts stimulated with UVB; experiment: fibroblasts stimulated with UVB; format: cell-based
From the text: This discovery promptly aroused in the inventors an interest in the ability of this class of products to intervene in the remodeling of the cutaneous ECM, in which the relative alteration of turnover leads to atrophy of the skin, with consequent aging of the skin and in some cases even to onset of skin cancer processes.

[3] = test system: osteoarthritic knees of mice; experiment: in vivo model of OA in mice, intra-articular administration; details: mice OA knee
JNK = JNK phosphorylation in primary cultured chondrocytes stimulated with IL-1; format: cell-based
Procedure: as §1

[4] = test system: human primary chondrocytes; experiment: human primary chondrocytes cultured in three dimensions as spheroids, ECM synthesis; format: cell-based; details: human chondrocyte spheroids, compound alone
Procedure: Finally, in order to understand which intracellular pathways are activated by said N-acetyl-phenylalanine derived from glucosamine to stimulate ECM synthesis, further in vitro studies in human primary chondrocytes were conducted. In order to simulate physiological conditions, the culture of human chondrocytes was carried out in three dimensions, cultivating the cells in the form of spheroids.

IKKα [5] = target: T2, IKKα (Homo sapiens, UniProt O15111); experiment: kinase activity of IKKα; format: cell-based
T2 sequence (O15111 1-745): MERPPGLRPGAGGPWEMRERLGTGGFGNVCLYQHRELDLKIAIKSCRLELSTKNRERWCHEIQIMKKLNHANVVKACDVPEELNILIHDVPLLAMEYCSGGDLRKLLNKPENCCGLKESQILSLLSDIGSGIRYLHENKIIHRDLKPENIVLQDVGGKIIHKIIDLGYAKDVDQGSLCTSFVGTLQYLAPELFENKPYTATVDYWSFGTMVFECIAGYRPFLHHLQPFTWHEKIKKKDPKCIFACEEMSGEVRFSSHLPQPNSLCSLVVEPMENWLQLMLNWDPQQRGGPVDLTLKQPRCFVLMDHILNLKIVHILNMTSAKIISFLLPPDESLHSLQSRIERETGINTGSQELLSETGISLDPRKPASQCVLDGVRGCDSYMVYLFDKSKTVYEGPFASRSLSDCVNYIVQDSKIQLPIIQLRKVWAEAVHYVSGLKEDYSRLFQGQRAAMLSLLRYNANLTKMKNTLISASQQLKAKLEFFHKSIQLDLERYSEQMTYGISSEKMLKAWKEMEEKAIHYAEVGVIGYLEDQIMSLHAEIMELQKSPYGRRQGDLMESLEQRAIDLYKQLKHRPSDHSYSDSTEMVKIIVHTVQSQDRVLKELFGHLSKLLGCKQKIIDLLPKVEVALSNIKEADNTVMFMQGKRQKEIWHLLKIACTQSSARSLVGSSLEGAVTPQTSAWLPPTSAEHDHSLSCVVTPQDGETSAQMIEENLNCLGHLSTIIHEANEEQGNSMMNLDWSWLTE
Procedure: as §1

HAS-2 = experiment: expression of hyaluronic acid synthetase (HAS-2) and production of hyaluronic acid; format: cell-based
IKKα [6] = target: T2, IKKα; experiment: translocation of IKKα kinase in the nucleus, primary cultured chondrocytes; format: cell-based
Procedure: as §1

CC(=O)N[C@H](Cc1ccccc1)C(=O)NC1C(O)OC(CO)C(O)C1O (stereo partly drawn) [N-acetyl-phenylalanine derivative of glucosamine]
phosphorylation of p38 (p38): inhibiting the phosphorylation | kinase activity of IKKβ (IKKβ): not IKKβ | activation of c-jun (c-jun): influencing the activation of c-jun | cartilage structure [1]: structure very similar to the healthy one | synthesis of new ECM [1]: stimulated the synthesis of new ECM | synthesis of type I collagen ([2]; UVB-stimulated fibroblasts, synthesis blocked by UVB treatment): restore the synthesis of type I collagen | inflammatory pathways stimulated by UVB ([2]; compound added to culture medium of UVB-stimulated fibroblasts): able to counteract the inflammatory pathways | cartilage structure [3]: structure very similar to the healthy one | synthesis of new ECM [3]: stimulated the synthesis of new ECM | phosphorylation of JNK (JNK): inhibiting the phosphorylation | synthesis of type II collagen [4]: stimulated the synthesis of type II collagen | kinase activity of IKKα (IKKα [5]): selectively inhibiting the kinase activity of IKKα | expression of the enzyme synthetase of hyaluronic acid (HAS-2) (HAS-2): stimulate the expression | production of hyaluronic acid (HA) (HAS-2): stimulate | translocation in the nucleus of the IKKα kinase (IKKα [6]): inhibited the translocation in the nucleus
